Experimental data published in patent publication US7122666B2, “Heteroaryl-substituted pyrrole derivatives, their preparation and their therapeutic uses” (Sankyo Company, Limited, priority 1999, dated 2006).

Tests used:
[1] = tested on: TNFα production; experiment: Inhibition of the production of TNFα in vivo (Test Examples 2 and 2′); conditions: Table 9′; Balb/c mice, oral administration 30 minutes before intravenous lipopolysaccharide, plasma TNFα 1 hour after LPS
Description: This test was performed according to the method of Ochalski, et al. [S. J. Ochalski, D. A. Hartman, M. T. Belfast, T. L. Walter, K. B. Glaser and R. P. Carlson; Inhibition of endotoxin-induced hypothermia and serum TNF-α levels in CD-1 mice by various pharmacological agents: Agents Actions 39, C52–C54 (1993)].
The production of TNFα was induced in mice by the intravenous injection of lipopolysaccharide (E. coli O26: B6 origin, Difco) which was prepared to a concentration of 0.045 mg/ml using physiological saline. The saline preparation of lipopolysaccharide was administered at the rate of 10 ml/l kg of body weight into the caudal vein of Balb/c mice (males, age 5–7 weeks, body weight: approx. 22 g, Japan Charles River) which had been fasted overnight starting on the day before the experiment. One hour after administration, the mice were laparotomized under ether anaesthesia and blood was collected from the abdominal vena cava. Blood collection was performed using a 1 ml volume disposable syringe equipped with a 23G needle which had been moistened with heparin on the inside wall. Following blood collection, the blood was immediately transferred to a 1.5 ml volume Eppendorf tube and centrifuged at 4° C. and 14,000 rpm to separate the plasma. This plasma was then stored at −20° C. until measurement of TNFα. The measurement of the amount of TNFα was performed with a commercially available enzyme immunoassay (ELISA) kit (Mouse TNFα ELISA KIT, Genzyme).
To determine the inhibitory activity of the test compounds, each test compound was suspended in a 0.5% tragacanth solution and then administered orally to the Balb/c mice at the rate of 10 ml/1 kg of body weight 30 minutes before injection of lipopolysaccharide. The level of TNFα production was then determined as described above. In the control group, 0.5% tragacanth solution was administered at the rate of 10 ml/1 kg of body weight to the test mice instead of the solutions of the test compounds. A minimum of 3 dose levels of the test compound was administered to groups of 5 test mice for each test compound. The inhibitory rate relative to the control group was calculated for each dose level. From the inhibitory rates and the dosages, ID50 values were calculated by the least squares method.
The production of TNFα was induced in mice by the intravenous injection of lipopolysaccharide (E. coli O26: B6 origin, Difco) which was prepared to a concentration of 0.045 mg/ml using physiological saline. […]
To determine the inhibitory activity of the test compounds, each test compound was suspended in a 0.5% tragacanth solution and then administered orally to the Balb/c mice at the rate of 10 ml/1 kg of body weight 30 minutes before injection of lipopolysaccharide. The level of TNFα production was then determined as described above. […]

[2] = tested on: IL-1β production in human whole blood; experiment: Inhibition of the production of IL-1β in vitro in human whole blood (Test Examples 1 and 1′); assay type: cell-based; conditions: Table 8′, lipopolysaccharide 10 μg/ml, 6 hours at 37° C., plasma IL-1β by ELISA, least squares, read-out: Inhibitory Effect on IL-1β Production (in vitro) IC50
Description: Inhibition of the Production of the Cytokines IL-1β and TNFα in Vitro in Human Whole Blood
This test was performed according to the method of Hartman, et al. [D. A. Hartman, S. J. Ochalski and R. P. Carlson; The effects of anti-inflammatory and antiallergic drugs on cytokine release after stimulation of human whole blood by lipopolysaccharide and zymosan A: Inflamm. Res., 44, 269 (1995)].
(§1) Peripheral blood samples were collected in the presence of heparin from healthy adult volunteers. 1000 μl of whole blood were added to an Eppendorf tube to which 2 μl of a dimethyl sulfoxide solution of the test compound had been added in advance, after which 10 μl of lipopolysaccharide (E. coli 026: B6 origin, Difco) were added as a stimulant (final concentration of said lipopolysaccharide: 10 μg/ml). This was mixed well and then incubated for 6 hours at 37° C. in the presence of 5% CO2. At the end of the incubation, the mixture was cooled to 4° C. to stop the reaction, followed immediately by centrifuging for 5 minutes at 14,000 rpm to separate and collect the supernatant plasma. The IL-1β and TNFα produced and released into the plasma were measured using a commercially available enzyme immunoassay (ELISA) kit [Cayman (IL-1β) and Genzyme (TNFα)]. The procedure was also repeated in the absence of test compound. The inhibitory effect [IC50 (μM)] on the production of IL-1β and TNFα was determined from the amounts of the cytokines produced in the presence and absence of the test compound.
Inhibition of the Production of the Cytokines IL-1β and TNFα In Vitro in Human Whole Blood
as §1, with “O26:” for “026:”, “plasma” for “plasma.”, “kits” for “kit”, “determined by the method of least squares” for “determined”

CC1C[C@H]2C=C(c3c[nH]c(-c4ccc(F)cc4)c3-c3ccncc3)CCN2C1 (stereo partly drawn) [Example 16′, 2-(4-Fluorophenyl)-4-[(8aS)-2-methyl-1,2,3,5,6,8a-hexahydroindolizin-7-yl]-3-(pyridin-4-yl)1H-pyrrole]
Inhibitory Effect on TNFα Production (in vivo) IC50 [1]: 0.71 mg/kg
IC50 [2]: 1.7 nM
